In ChEMBL document CHEMBL5113372, “Paradigm shift of "classical" HDAC inhibitors to "hybrid" HDAC inhibitors in therapeutic interventions” (Eur J Med Chem, 2021) one finds IC50, Ki and Activity data, which are given here for ten molecules.

For experiment [1], the target named is T1, Histone deacetylase 1 (Homo sapiens, UniProt Q13547). The experiment in a line: Inhibition of C-terminal 6xHis/FLAG-tagged full-length recombinant human HDAC1 (1 to 482 residues) expressed in Sf9 insect cells using fluorogenic substrate incubated for 30 mins by fluorescence based plate reader analysis.
T1 sequence (Q13547 whole entry, the tested form may be a part): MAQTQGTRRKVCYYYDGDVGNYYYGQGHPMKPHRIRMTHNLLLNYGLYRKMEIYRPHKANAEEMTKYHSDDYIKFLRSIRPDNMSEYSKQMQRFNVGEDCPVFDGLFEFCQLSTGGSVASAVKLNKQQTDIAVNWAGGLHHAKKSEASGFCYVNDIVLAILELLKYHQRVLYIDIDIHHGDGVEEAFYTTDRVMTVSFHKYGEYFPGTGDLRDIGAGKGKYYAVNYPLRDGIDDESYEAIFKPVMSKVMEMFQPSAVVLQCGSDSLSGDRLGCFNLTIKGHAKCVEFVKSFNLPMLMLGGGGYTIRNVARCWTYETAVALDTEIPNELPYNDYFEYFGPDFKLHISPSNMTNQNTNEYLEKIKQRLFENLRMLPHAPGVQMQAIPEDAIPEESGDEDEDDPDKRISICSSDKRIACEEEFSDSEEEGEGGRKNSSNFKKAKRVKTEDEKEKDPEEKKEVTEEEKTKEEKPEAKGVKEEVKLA
Experiment [2] deals with T2, Protein deacetylase HDAC6 (Homo sapiens, UniProt Q9UBN7).
T2 sequence (Q9UBN7 whole entry): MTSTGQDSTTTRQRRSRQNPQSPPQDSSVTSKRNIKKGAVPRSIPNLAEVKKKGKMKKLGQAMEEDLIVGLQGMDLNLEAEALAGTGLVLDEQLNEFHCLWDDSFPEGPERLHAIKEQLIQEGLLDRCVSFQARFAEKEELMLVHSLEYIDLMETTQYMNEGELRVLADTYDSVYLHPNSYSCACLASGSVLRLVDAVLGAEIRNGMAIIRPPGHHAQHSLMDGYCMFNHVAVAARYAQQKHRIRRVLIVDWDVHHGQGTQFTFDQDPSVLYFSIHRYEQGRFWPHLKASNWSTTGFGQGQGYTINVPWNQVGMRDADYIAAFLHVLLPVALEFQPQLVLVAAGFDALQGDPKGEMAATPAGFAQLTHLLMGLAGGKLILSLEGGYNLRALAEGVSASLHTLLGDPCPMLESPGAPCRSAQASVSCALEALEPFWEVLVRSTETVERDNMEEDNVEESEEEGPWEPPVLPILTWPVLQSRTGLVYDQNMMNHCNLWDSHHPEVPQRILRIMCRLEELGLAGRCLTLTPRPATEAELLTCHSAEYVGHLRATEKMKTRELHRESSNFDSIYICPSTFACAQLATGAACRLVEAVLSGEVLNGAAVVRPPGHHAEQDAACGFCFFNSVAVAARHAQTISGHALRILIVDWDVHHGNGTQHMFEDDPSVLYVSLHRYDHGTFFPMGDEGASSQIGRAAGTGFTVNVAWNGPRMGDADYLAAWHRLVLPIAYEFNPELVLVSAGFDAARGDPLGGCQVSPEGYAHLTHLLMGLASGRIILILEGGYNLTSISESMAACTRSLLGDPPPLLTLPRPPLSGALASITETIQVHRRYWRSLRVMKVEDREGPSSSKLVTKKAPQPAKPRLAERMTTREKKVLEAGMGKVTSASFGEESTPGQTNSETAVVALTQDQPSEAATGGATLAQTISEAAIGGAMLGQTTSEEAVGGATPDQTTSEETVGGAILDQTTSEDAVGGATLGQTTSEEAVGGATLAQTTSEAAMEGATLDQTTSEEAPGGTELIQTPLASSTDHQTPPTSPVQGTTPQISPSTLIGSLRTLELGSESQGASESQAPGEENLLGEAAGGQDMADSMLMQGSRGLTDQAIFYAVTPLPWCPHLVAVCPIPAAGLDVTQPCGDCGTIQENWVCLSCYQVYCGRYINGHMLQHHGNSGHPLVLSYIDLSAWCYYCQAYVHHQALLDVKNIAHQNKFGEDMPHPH
The experiment in a line: Inhibition of full-length recombinant human HDAC6 (1 to 1215 residues) expressed in Sf9 insect cells using fluorogenic substrate incubated for 30 mins by fluorescence based plate reader analysis.

The target of experiment [3] is T3, High affinity cGMP-specific 3',5'-cyclic phosphodiesterase 9A (Homo sapiens, UniProt O76083). The experiment in a line: Inhibition of N-terminal GST-tagged full-length human PDE9A2 expressed in baculovirus infected Sf9 insect cells using cGMP as substrate incubated for 30 mins by HTRF assay.
T3 sequence (O76083 whole entry, the tested form may be a part): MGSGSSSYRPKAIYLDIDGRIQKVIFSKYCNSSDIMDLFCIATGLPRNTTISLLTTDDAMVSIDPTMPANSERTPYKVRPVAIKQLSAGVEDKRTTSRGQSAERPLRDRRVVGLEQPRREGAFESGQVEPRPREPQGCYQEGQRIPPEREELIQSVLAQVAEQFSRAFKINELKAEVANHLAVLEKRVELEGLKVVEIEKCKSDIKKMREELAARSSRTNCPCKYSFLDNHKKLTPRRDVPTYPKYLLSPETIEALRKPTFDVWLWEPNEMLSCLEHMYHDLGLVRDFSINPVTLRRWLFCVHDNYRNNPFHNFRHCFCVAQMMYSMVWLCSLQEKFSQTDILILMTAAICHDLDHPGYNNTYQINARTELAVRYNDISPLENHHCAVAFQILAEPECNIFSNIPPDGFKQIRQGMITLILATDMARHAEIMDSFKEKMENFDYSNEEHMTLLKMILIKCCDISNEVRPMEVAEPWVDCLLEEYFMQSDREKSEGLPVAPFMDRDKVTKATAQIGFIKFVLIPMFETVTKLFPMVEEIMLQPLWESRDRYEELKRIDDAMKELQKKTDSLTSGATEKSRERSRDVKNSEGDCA
Experiment [4] addresses T4, cGMP-specific 3',5'-cyclic phosphodiesterase (Homo sapiens, UniProt O76074). The experiment in a line: Inhibition of N-terminal GST-tagged full-length recombinant human PDE5A1 (1 to 875 residues) expressed in Sf9 insect cells using cGMP as substrate incubated for 30 mins by HTRF assay. (In general: In TR-FRET formats the signal depends on donor and acceptor labels being close together.)

Experiment [5] deals with T3, High affinity cGMP-specific 3',5'-cyclic phosphodiesterase 9A. The experiment can be described thus: Inhibition of PDE9 (unknown origin).
Experiment [6] addresses T5, Histone deacetylase 2 (Homo sapiens, UniProt Q92769). The experiment can be described thus: Inhibition of HDAC2 (unknown origin).
In experiment [7] the target is T1, Histone deacetylase 1. The experiment can be described thus: Inhibition of HDAC1 (unknown origin).
Experiment [8] has as its target T2, Protein deacetylase HDAC6. The experiment in a line: Inhibition of HDAC6 (unknown origin).
The nature of experiment [9]: Inhibition of PDE5 (unknown origin). Further details: species or system Homo sapiens.
The target of experiment [10] is Protein kinase C alpha type (Mus musculus, UniProt P20444). The experiment in a line: Binding affinity to mouse PKC-alpha assessed as inhibition constant.
The target of experiment [11] is Phosphatidylinositol 4,5-bisphosphate 3-kinase catalytic subunit alpha isoform (Homo sapiens, UniProt P42336). The experiment can be described thus: Inhibition of PI3K-alpha (unknown origin).
Sequence of Phosphatidylinositol 4,5-bisphosphate 3-kinase catalytic subunit alpha isoform (P42336 whole entry, canonical isoform): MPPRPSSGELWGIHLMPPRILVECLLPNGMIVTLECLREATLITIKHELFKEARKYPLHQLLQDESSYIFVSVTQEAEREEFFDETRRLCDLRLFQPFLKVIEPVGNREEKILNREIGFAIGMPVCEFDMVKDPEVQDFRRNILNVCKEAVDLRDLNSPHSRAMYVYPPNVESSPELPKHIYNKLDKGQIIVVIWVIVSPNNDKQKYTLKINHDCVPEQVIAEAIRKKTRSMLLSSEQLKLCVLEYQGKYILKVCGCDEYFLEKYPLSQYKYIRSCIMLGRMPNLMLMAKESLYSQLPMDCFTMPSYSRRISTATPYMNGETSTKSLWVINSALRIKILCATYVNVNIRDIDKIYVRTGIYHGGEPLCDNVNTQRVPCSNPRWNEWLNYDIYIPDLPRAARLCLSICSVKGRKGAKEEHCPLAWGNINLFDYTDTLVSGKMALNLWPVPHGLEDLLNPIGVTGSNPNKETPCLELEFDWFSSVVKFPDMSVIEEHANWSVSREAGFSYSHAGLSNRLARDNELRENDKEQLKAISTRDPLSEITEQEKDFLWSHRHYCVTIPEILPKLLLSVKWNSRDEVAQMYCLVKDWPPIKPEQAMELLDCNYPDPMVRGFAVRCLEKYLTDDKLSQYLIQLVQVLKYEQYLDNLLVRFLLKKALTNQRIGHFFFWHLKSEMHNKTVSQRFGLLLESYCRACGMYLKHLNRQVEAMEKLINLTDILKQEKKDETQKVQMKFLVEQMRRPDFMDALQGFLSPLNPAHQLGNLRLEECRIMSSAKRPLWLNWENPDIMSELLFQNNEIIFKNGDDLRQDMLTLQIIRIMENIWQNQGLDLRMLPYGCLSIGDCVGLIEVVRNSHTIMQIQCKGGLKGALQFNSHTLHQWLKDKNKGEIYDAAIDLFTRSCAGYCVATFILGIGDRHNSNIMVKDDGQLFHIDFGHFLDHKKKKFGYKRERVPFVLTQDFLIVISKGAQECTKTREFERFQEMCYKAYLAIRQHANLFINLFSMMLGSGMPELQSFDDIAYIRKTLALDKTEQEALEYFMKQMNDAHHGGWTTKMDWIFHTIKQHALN
A further experiment concerns the target T6, Histone deacetylase 8 (Homo sapiens, UniProt Q9BY41).
T6 sequence (Q9BY41 whole entry): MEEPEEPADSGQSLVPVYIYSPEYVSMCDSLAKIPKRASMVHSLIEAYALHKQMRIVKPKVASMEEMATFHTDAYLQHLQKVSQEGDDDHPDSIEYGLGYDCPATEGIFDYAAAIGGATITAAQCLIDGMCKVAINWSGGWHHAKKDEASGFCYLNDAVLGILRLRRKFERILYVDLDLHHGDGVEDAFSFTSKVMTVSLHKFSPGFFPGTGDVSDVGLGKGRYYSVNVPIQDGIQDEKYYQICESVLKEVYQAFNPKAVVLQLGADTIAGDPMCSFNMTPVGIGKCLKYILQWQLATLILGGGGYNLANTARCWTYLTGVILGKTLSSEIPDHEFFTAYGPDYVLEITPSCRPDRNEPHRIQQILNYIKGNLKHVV
The experiment can be described thus: Inhibition of recombinant human HDAC8 using Fluor-de-lys substrate by fluorescence based microplate reader analysis.

Experiment [12] deals with 72 kDa type IV collagenase (Homo sapiens, UniProt P08253). The experiment in a line: Inhibition of MMP2 (unknown origin) using chromogenic substrate incubated for 1 hr followed by substrate addition measured for 30 mins by microplate photometry.
Sequence of 72 kDa type IV collagenase (P08253 whole entry): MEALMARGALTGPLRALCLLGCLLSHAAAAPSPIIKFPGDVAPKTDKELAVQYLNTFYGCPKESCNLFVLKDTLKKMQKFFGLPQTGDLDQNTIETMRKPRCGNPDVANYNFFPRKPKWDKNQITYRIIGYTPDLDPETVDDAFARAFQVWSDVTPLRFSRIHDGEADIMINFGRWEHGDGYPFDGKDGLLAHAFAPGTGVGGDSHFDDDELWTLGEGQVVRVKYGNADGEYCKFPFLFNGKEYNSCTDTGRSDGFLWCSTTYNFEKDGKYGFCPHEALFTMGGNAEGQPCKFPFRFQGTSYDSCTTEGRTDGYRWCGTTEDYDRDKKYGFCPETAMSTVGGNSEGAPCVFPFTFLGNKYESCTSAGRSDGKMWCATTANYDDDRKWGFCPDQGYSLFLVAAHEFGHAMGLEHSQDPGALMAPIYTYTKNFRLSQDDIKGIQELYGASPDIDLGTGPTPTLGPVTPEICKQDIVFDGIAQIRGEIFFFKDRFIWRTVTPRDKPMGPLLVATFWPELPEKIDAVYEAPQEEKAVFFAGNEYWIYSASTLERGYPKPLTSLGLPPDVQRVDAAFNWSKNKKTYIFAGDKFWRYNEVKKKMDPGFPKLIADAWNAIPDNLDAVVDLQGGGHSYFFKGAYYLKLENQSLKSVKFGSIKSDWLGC
Experiment [13] deals with A549. The experiment can be described thus: Antiinvasive activity against human A549 cells assessed as reduction in cell invasion incubated for 24 hrs by microplate reader analysis relative to control. Further details: scale not given: the % may be the effect or the level left. It counts as functional.
Experiment [14] has as its target T4, cGMP-specific 3',5'-cyclic phosphodiesterase. The experiment can be described thus: Inhibition of PDE5A (unknown origin).
Experiment [15] has as its target T1, Histone deacetylase 1. The experiment in a line: Inhibition of recombinant human HDAC1 expressed in baculovirus infected Hi-5 insect cells using Ac-Lys-Tyr-Lys (epsilon-acetyl)-AMC as substrate incubated for 3 to 24 hrs by fluorescence based plate reader analysis.
Experiment [16] deals with T5, Histone deacetylase 2. The experiment in a line: Inhibition of recombinant human HDAC2 expressed in baculovirus infected Hi-5 insect cells using Ac-Lys-Tyr-Lys (epsilon-acetyl)-AMC as substrate incubated for 3 to 24 hrs by fluorescence based plate reader analysis.
Experiment [17] concerns A549. The experiment can be described thus: Cytotoxicity against human A549 cells assessed as inhibition of cell proliferation incubated for 72 hrs by MTT assay. The class given is functional, cell-based. Conditions: A549, 72 h. Background: Formazan colour is commonly taken as a measure of viable cells.
Another experiment deals with Histone deacetylase 3 (Homo sapiens, UniProt O15379). The experiment in a line: Inhibition of recombinant human HDAC3 expressed in baculovirus infected Hi-5 insect cells using Ac-Lys-Tyr-Lys (epsilon-acetyl)-AMC as substrate incubated for 3 to 24 hrs by fluorescence based plate reader analysis.
Sequence of Histone deacetylase 3 (O15379 whole entry): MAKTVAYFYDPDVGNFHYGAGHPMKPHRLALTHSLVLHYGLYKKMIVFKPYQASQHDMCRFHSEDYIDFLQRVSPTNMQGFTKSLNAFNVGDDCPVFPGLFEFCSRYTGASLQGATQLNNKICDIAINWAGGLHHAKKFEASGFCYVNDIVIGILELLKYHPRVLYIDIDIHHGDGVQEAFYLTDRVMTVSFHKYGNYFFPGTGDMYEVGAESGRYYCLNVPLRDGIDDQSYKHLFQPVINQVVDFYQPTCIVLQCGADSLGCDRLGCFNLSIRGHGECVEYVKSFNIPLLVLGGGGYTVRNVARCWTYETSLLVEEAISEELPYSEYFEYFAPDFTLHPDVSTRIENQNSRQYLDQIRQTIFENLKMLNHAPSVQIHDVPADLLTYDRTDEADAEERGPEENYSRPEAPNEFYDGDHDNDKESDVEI
The next experiment concerns HCT-116. The experiment in a line: Cytotoxicity against human HCT-116 cells assessed as inhibition of cell proliferation incubated for 72 hrs by MTT assay. It counts as functional, cell-based. Particulars: HCT-116, 72 h.
Experiment [18] deals with T1, Histone deacetylase 1. The experiment in a line: Inhibition of full-length recombinant human HDAC1 expressed in baculovirus infected Hi-5 insect cells using AcLys-Tyr-Lys(e-acetyl)-AMC as substrate incubated for 24 hrs by enzymatic assay.
The next experiment deals with K562. The experiment can be described thus: Antiproliferative activity against human K562 cells assessed as cell growth inhibition incubated for 48 hrs by MTT assay. It counts as functional, cell-based. Particulars: K562, 48 h.
A further experiment has as its system DU-145. The experiment in a line: Antiproliferative activity against human DU-145 cells assessed as cell growth inhibition incubated for 48 hrs by MTT assay. It counts as functional, cell-based. Conditions: DU-145, 48 h.
The next experiment deals with HepG2. The experiment can be described thus: Antiproliferative activity against human HepG2 cells assessed as cell growth inhibition incubated for 48 hrs by MTT assay. The class given is functional, cell-based. Particulars: HepG2, 48 h.

T5 sequence (Q92769 whole entry): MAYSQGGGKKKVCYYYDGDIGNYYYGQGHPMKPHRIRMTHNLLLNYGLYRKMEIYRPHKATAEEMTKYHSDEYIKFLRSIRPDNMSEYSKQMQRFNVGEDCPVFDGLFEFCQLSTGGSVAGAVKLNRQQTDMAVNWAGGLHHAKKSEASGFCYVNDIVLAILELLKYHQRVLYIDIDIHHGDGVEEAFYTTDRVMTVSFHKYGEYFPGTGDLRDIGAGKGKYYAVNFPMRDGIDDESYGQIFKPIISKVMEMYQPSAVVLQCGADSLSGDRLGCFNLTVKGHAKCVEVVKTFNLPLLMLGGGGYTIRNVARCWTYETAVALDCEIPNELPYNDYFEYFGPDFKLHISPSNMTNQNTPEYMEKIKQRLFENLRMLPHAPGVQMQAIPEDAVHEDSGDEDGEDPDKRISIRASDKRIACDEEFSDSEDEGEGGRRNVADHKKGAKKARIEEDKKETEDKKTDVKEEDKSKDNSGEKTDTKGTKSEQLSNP

As for `CCCc1nn(C)c2c(=O)[nH]c(-c3cc(CC4CC(C(=O)NO)C4)ccc3OCC)nc12` (stereo not drawn), the IC50 was 310 nM at Histone deacetylase 1 [1], 81 nM in experiment [2], over 10000 nM in [3] and 60 nM in experiment [4].

Take `C[C@H]1CN(Cc2ccc(/C=C/C(=O)NO)cc2)C[C@@H]1c1nc2c(cnn2C2CCOCC2)c(=O)[nH]1`: the IC50 in [5] was 8 nM; against Histone deacetylase 2 [6], 1250 nM; at Histone deacetylase 1 [7], 138 nM; in experiment [8] it was 508 nM; in experiment [9], over 10000 nM.

Regarding `CC(=O)SCCCCCCCOc1ccc2c(c1)N(C)[C@H](C(C)C)C(=O)N[C@@H](CO)C2`, the Ki in experiment [10] came to 4.5 nM.

For the molecule `O=C(NO)c1ccc(/C=N/NC(=O)c2cc(N3CCOCC3)nc(-c3cccc4[nH]ncc34)n2)cc1`, the IC50 was found to be 8.34 nM in experiment [11] and 34.6 nM in experiment [8].

For the molecule `O=C(O)CC[C@H](NC(=O)Cc1ccc(Br)cc1)C(=O)NCc1ccccc1`, the IC50 turned out to be 3030 nM at Histone deacetylase 8 and 19600 nM in [12]. For the same molecule, in the experiment with A549 [13], the Activity is 34%.

Turning to `CCCc1nn(C)c2c(=O)[nH]c(-c3cc(Cc4ccc(C(=O)Nc5ccccc5N)cc4)ccc3OCC)nc12`, the IC50 at Histone deacetylase 2 [6] is over 20000 nM; on Histone deacetylase 1 [7] it was 673 nM; in experiment [14] it was 114 nM; in experiment [8], over 20000 nM.

For `COc1ccc(CNC(=O)[C@H](CCC(=O)O)NC(=O)Cc2ccc(Br)cc2)cc1`, the IC50 at Histone deacetylase 8 worked out at 2890 nM; in [12] it was 6400 nM. For the same molecule, the Activity in the experiment with A549 [13] was 34%.

Regarding `COc1cc([C@@H]2c3cc4c(cc3C[C@H]3COC(=O)[C@@H]32)OCO4)cc(OC)c1OC(=O)CC(=O)Nc1ccc(C(=O)Nc2ccccc2N)cc1`, the IC50 was 11000 nM at Histone deacetylase 1 [15]; 750 nM on Histone deacetylase 2 [16]; 37 nM in the experiment on A549 [17]; 5300 nM at Histone deacetylase 3; 40 nM in the experiment on HCT-116.

As for `O=C(NO)c1ccc(/C=N/NC(=O)c2cc(N3CCOCC3)nc(-c3cccc(O)c3)n2)cc1`, the figures for the IC50 in experiment [11] and in experiment [8] were 46.3 nM and 15.3 nM, respectively.

Regarding `CCN1CCN(c2cc(Nc3ncc(C(=O)Nc4ccccc4N)s3)ncn2)CC1`, the IC50 came to 150 nM at Histone deacetylase 1 [18], 2560 nM in the experiment on K562, 5790 nM with DU-145 and 16500 nM in the experiment with HepG2.

Broadly, the IC50 is the point on the concentration scale where inhibition reaches its midpoint. For orientation: Ki means the dissociation constant of the complex between target and ligand, obtained from inhibition or displacement.
